Earlier results in patent US11912755B2, “Endostatin fragments and variants for use in treating fibrosis” (iBio, Inc., priority 2015, dated 2024).
Ends that are not written are not given here.

System: TGF-β-induced dermal fibrosis in mouse skin
Settings: single dose concurrently with TGF-β; cited from earlier work

E4: SEQ ID NO: 21, amino acids 133-180 of human endostatin with a C-terminal amide (SYCETWRTEAPSATGQASSLLGGRLLGQSAASCHHAYIVLCIENSFMT-NH2; cysteine pairing not given here)
skin thickness: significantly decreased skin
